Values quoted from earlier work in article PMC3583338 (Clinical pharmacology and therapeutics, 2008).

How the values were obtained:
[1] = system: P-gp
[2] = system: OATP1B1
[3] = system: OATP
[4] = system: OATP1B3

## CC(C)c1nc(CN(C)C(=O)N[C@H](C(=O)N[C@@H](Cc2ccccc2)C[C@H](O)[C@H](Cc2ccccc2)NC(=O)OCc2cncs2)C(C)C)cs1 [ritonavir]
[1]
  P-gp mRNA expression: moderately induced
[2]
  effect on OATP1B1: little or no effect
[3]
  inhibition of OATP-mediated fexofenadine transport: 13%
[4]
  effect on OATP1B3: little or no effect
